Measurements published in patent publication US20250134799A1, “COMPOSITION CONTAINING NERO DI TROIA POMACE EXTRACT” (PLANBIO COSMETICS SRL, priority 2022, published 2025).

Tested on: HaCaT cells
Test: Cellular viability of HaCaT cells by MTS colorimetric assay
Type: cell-based, human
Conditions: 24 hours
Experimental: The aim of this study was to evaluate in vitro the effect of GExtract NdT (obtained in Example 1) on the viability of the human keratinocyte cell line HaCaT. The evaluation was performed on cells exposed to GExtract NdT at a dilution of 2% in complete medium for 24 hours. The cellular viability was measured by MTS colorimetric essay through the absorbance measurement obtained from the conversion of a bioreduced tertazolium compound from viable cells into a coloured formazan soluble in the culture medium. The HaCaT cells were exposed for 24 hours to 2% of GExtract NdT of and Triton-X 100 and subsequently the viability was evaluated by MTS assay.

Substance: TRITON-X 100
- Concentration from which the surfactant lysed all the cells: ≥ 0.01%
- % CTR (cell viability, percentage normalized on the control group) (0.005% (v/v)): 52.098%
- % CTR (cell viability, percentage normalized on the control group) (0.01% (v/v)): 0%
- % CTR (cell viability, percentage normalized on the control group) (0.05% (v/v)): 0%
- % CTR (cell viability, percentage normalized on the control group) (0.5% (v/v)): 0%
